Columns and labels:
pepsin = pepsin (Homo sapiens, UniProt P0DJD8); assay: Proteolysis of casein by pepsin with ascorbic acid in citric acid buffer (OPA fluorescence, TAAE); format: biochemical
Experimental: 1. […]
(§1) The four test tubes were respectively incubated at 37° C. for 10 minutes, 1 hour, 2 hours and 3 hours, an equal amount of 10% trichloroacetic acid (TCA) solution was added into each test tube and mixed with the control solution uniformly, and the test tubes were held at room temperature for 10 minutes and then centrifuged at 3000 rpm for 10 minutes. 20 μL of the supernatants taken from the above-mentioned test tubes at four time points were put into four new test tubes. 2.4 mL o-phthalaldehyde (OPA) reagent was added into each new test tube and held for 2 minutes, and the fluorescence intensity was measured at EX. 340 nm and EM. 455 nm by a fluorescence spectrometer. […] The four test tubes were respectively incubated at 37° C. for 10 minutes, 1 hour, 2 hours and 3 hours, an equal amount of 10% TCA solution was added into each test tube and mixed with the experimental solution uniformly, and the test tubes were held at room temperature for 10 minutes and then centrifuged at 3000 rpm for 10 minutes. 20 μL of the supernatants taken from the above-mentioned test tubes at four time points were put into four new test tubes. 2.4 mL OPA reagent was added into each new test tube and held for 2 minutes, and the fluorescence intensity was measured at EX. 340 nm and EM. 455 nm by the fluorescence spectrometer. […] The four test tubes were respectively incubated at 37° C. for 10 minutes, 1 hour, 2 hours and 3 hours, an equal amount of 10% TCA solution was added into each test tube and mixed with the experimental solution uniformly, and the test tubes were held at room temperature for 10 minutes and then centrifuged at 3000 rpm for 10 minutes. 20 μL of the supernatants taken from the above-mentioned test tubes at four time points were put into four new test tubes. 2.4 mL OPA reagent was added into each new test tube and held for 2 minutes, and the fluorescence intensity was measured at EX. 340 nm and EM. 455 nm by the fluorescence spectrometer. […] The four test tubes were respectively incubated at 37° C. for 10 minutes, 1 hour, 2 hours and 3 hours, an equal amount of 10% TCA solution was added into each test tube and mixed with the experimental solution uniformly, and the test tubes were held at room temperature for 10 minutes and then centrifuged at 3000 rpm for 10 minutes. 20 μL of the supernatants taken from the above-mentioned test tubes at four time points were put into four new test tubes. 2.4 mL OPA reagent was added into each new test tube and held for 2 minutes, and the fluorescence intensity was measured at EX. 340 nm and EM. 455 nm by the fluorescence spectrometer. The obtained fluorescence intensity was calculated as the amount of tyrosine according to the tyrosine calibration line established in advance at the same pH value, and represented as TAAE (μg/mL). 2. […] The four test tubes were respectively incubated at 37° C. for 10 minutes, 1 hour, 2 hours and 3 hours, an equal amount of 10% TCA solution was added into each test tube and mixed with the control solution uniformly, and the test tubes were held at room temperature for 10 minutes and then centrifuged at 3000 rpm for 10 minutes. 20 μL of the supernatants taken from the above-mentioned test tubes at four time points were put into four new test tubes. 2.4 mL OPA reagent was added into each new test tube and held for 2 minutes, and the fluorescence intensity was measured at EX. 340 nm and EM. 455 nm by the fluorescence spectrometer. […] The four test tubes were respectively incubated at 37° C. for 10 minutes, 1 hour, 2 hours and 3 hours, an equal amount of 10% TCA solution was added into each test tube and mixed with the experimental solution uniformly, and the test tubes were held at room temperature for 10 minutes and then centrifuged at 3000 rpm for 10 minutes. 20 μL of the supernatants taken from the above-mentioned test tubes at four time points were put into four new test tubes. […]

[1] = environment where the pH is greater than 4; cited from earlier work
trypsin = trypsin (Homo sapiens, UniProt P07477); assay: Proteolysis of casein by trypsin with ascorbic acid in citric acid buffer (OPA fluorescence, TAAE); format: biochemical
Experimental: as §1

[2] = pH 5.0, 60 ppm ascorbic acid, 0.1 hr
[3] = pH 5.0, 60 ppm ascorbic acid, 1 hr
[4] = pH 5.0, 60 ppm ascorbic acid, 2 hr
[5] = pH 5.0, 60 ppm ascorbic acid, 3 hr
[6] = pH 5.0, 120 ppm ascorbic acid, 0.1 hr
[7] = pH 5.0, 120 ppm ascorbic acid, 1 hr
[8] = pH 5.0, 120 ppm ascorbic acid, 2 hr
[9] = pH 5.0, 120 ppm ascorbic acid, 3 hr
[10] = pH 5.0, 240 ppm ascorbic acid, 0.1 hr
[11] = pH 5.0, 240 ppm ascorbic acid, 1 hr
[12] = pH 5.0, 240 ppm ascorbic acid, 2 hr
[13] = pH 5.0, 240 ppm ascorbic acid, 3 hr
[14] = pH 6.0, 60 ppm ascorbic acid, 0.1 hr
[15] = pH 6.0, 60 ppm ascorbic acid, 1 hr
[16] = pH 6.0, 60 ppm ascorbic acid, 2 hr
[17] = pH 6.0, 60 ppm ascorbic acid, 3 hr
[18] = pH 6.0, 120 ppm ascorbic acid, 0.1 hr
[19] = pH 6.0, 120 ppm ascorbic acid, 1 hr
[20] = pH 6.0, 120 ppm ascorbic acid, 2 hr
[21] = pH 6.0, 120 ppm ascorbic acid, 3 hr
[22] = pH 6.0, 240 ppm ascorbic acid, 0.1 hr
[23] = pH 6.0, 240 ppm ascorbic acid, 1 hr
[24] = pH 6.0, 240 ppm ascorbic acid, 2 hr
[25] = pH 6.0, 240 ppm ascorbic acid, 3 hr
[26] = pH 6.0, groups containing ascorbic acid

Sequence of pepsin (P0DJD8 63-388): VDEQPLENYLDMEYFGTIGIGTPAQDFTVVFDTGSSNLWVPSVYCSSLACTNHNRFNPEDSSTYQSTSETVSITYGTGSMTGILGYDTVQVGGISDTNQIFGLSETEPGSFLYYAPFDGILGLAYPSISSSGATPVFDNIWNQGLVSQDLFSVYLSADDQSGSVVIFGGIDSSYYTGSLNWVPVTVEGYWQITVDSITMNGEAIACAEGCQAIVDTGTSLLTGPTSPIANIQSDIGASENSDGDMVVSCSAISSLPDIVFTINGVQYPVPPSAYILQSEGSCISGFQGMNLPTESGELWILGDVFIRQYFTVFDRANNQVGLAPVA

Compound: O=C1O[C@H]([C@@H](O)CO)C(O)=C1O [ascorbic acid]
- total amino acid equivalent (TAAE) (pepsin; pH 2.0, 60 ppm ascorbic acid, 0.1 hr): 3.8 µg/mL
- total amino acid equivalent (TAAE) (pepsin; pH 2.0, 60 ppm ascorbic acid, 1 hr): 44.9 µg/mL
- total amino acid equivalent (TAAE) (pepsin; pH 2.0, 60 ppm ascorbic acid, 2 hr): 70.9 µg/mL
- total amino acid equivalent (TAAE) (pepsin; pH 2.0, 60 ppm ascorbic acid, 3 hr): 44.9 µg/mL
- total amino acid equivalent (TAAE) (pepsin; pH 2.0, 120 ppm ascorbic acid, 0.1 hr): 6.7 µg/mL
- total amino acid equivalent (TAAE) (pepsin; pH 2.0, 120 ppm ascorbic acid, 1 hr): 45.1 µg/mL
- total amino acid equivalent (TAAE) (pepsin; pH 2.0, 120 ppm ascorbic acid, 2 hr): 73.0 µg/mL
- total amino acid equivalent (TAAE) (pepsin; pH 2.0, 120 ppm ascorbic acid, 3 hr): 58.7 µg/mL
- total amino acid equivalent (TAAE) (pepsin; pH 2.0, 240 ppm ascorbic acid, 0.1 hr): 5.6 µg/mL
- total amino acid equivalent (TAAE) (pepsin; pH 2.0, 240 ppm ascorbic acid, 1 hr): 54.6 µg/mL
- total amino acid equivalent (TAAE) (pepsin; pH 2.0, 240 ppm ascorbic acid, 2 hr): 76.4 µg/mL
- total amino acid equivalent (TAAE) (pepsin; pH 2.0, 240 ppm ascorbic acid, 3 hr): 38.2 µg/mL
- hydrolysis efficiency of pepsin versus control group (in words) (pepsin; pH 2.0, groups containing ascorbic acid): better hydrolysis efficiencies than the control group
- TAAE (pepsin; [2]): 6.4 µg/mL
- TAAE (pepsin; [3]): 32.7 µg/mL
- TAAE (pepsin; [4]): 58.6 µg/mL
- TAAE (pepsin; [5]): 42.0 µg/mL
- TAAE (pepsin; [6]): 19.5 µg/mL
- TAAE (pepsin; [7]): 22.1 µg/mL
- TAAE (pepsin; [8]): 55.4 µg/mL
- TAAE (pepsin; [9]): 38.1 µg/mL
- proteolytic efficiency of pepsin (in words) (pepsin; pH 5.0, 240 ppm ascorbic acid): improves the proteolytic efficiency of the pepsin significantly
- TAAE (pepsin; [10]): 49.5 µg/mL
- TAAE (pepsin; [11]): 81.1 µg/mL
- TAAE (pepsin; [12]): 92.2 µg/mL
- TAAE (pepsin; [13]): 72.6 µg/mL
- effect on proteolysis efficiency of pepsin (in words) (pepsin; pH 5, pH 6 and pH 2, control group at pH 2 as comparison indicator): significant effect on the proteolysis efficiency of the pepsin
- TAAE (pepsin; [14]): 4.2 µg/mL
- TAAE (pepsin; [15]): 47.9 µg/mL
- TAAE (pepsin; [16]): 40.4 µg/mL
- TAAE (pepsin; [17]): 27.5 µg/mL
- TAAE (pepsin; [18]): -6.7 µg/mL
- TAAE (pepsin; [19]): 43.9 µg/mL
- TAAE (pepsin; [20]): 24.4 µg/mL
- TAAE (pepsin; [21]): 24.2 µg/mL
- TAAE (pepsin; [22]): 1.8 µg/mL
- TAAE (pepsin; [23]): 31.5 µg/mL
- TAAE (pepsin; [24]): 57.4 µg/mL
- TAAE (pepsin; [25]): 34.5 µg/mL
- proteolytic efficiency of pepsin versus control group (in words) (pepsin; [26]): better proteolytic efficiencies than the control group
- stability (degradation) of ascorbic acid (in words) [1]: easily degraded
- TAAE (trypsin; [2]): 11.5 µg/mL
- TAAE (trypsin; [3]): 30.4 µg/mL
- TAAE (trypsin; [4]): 37.8 µg/mL
- TAAE (trypsin; [5]): 45.2 µg/mL
- TAAE (trypsin; [6]): 15.3 µg/mL
- TAAE (trypsin; [7]): 38.0 µg/mL
- TAAE (trypsin; [8]): 39.0 µg/mL
- TAAE (trypsin; [9]): 49.1 µg/mL
- proteolytic efficiency of trypsin (in words) (trypsin; pH 5.0, 240 ppm ascorbic acid): improves the proteolytic efficiency of the trypsin significantly
- TAAE (trypsin; [10]): 38.9 µg/mL
- TAAE (trypsin; [11]): 37.5 µg/mL
- TAAE (trypsin; [12]): 87.9 µg/mL
- TAAE (trypsin; [13]): 89.3 µg/mL
- effect on proteolysis efficiency of trypsin (in words) (trypsin; pH 5, pH 6 and pH 7.5, control group at pH 7.5 as comparison indicator): significant effect on the proteolysis efficiency of the trypsin
- TAAE (trypsin; [14]): 57.7 µg/mL
- TAAE (trypsin; [15]): 86.6 µg/mL
- TAAE (trypsin; [16]): 90.4 µg/mL
- TAAE (trypsin; [17]): 93.7 µg/mL
- TAAE (trypsin; [18]): 54.2 µg/mL
- TAAE (trypsin; [19]): 85.6 µg/mL
- TAAE (trypsin; [20]): 91.3 µg/mL
- TAAE (trypsin; [21]): 94.8 µg/mL
- TAAE (trypsin; [22]): 57.9 µg/mL
- TAAE (trypsin; [23]): 102.4 µg/mL
- TAAE (trypsin; [24]): 103.1 µg/mL
- TAAE (trypsin; [25]): 91.5 µg/mL
- proteolytic efficiency of trypsin versus control group (in words) (trypsin; [26]): better proteolytic efficiencies than the control group
- TAAE (trypsin; pH 7.5, 60 ppm ascorbic acid, 0.1 hr): 82.6 µg/mL
- TAAE (trypsin; pH 7.5, 60 ppm ascorbic acid, 1 hr): 107.0 µg/mL
- TAAE (trypsin; pH 7.5, 60 ppm ascorbic acid, 2 hr): 103.8 µg/mL
- TAAE (trypsin; pH 7.5, 60 ppm ascorbic acid, 3 hr): 105.1 µg/mL
- TAAE (trypsin; pH 7.5, 120 ppm ascorbic acid, 0.1 hr): 78.4 µg/mL
- TAAE (trypsin; pH 7.5, 120 ppm ascorbic acid, 1 hr): 116.3 µg/mL
- TAAE (trypsin; pH 7.5, 120 ppm ascorbic acid, 2 hr): 107.3 µg/mL
- TAAE (trypsin; pH 7.5, 120 ppm ascorbic acid, 3 hr): 99.0 µg/mL
- TAAE (trypsin; pH 7.5, 240 ppm ascorbic acid, 0.1 hr): 60.4 µg/mL
- TAAE (trypsin; pH 7.5, 240 ppm ascorbic acid, 1 hr): 91.1 µg/mL
- TAAE (trypsin; pH 7.5, 240 ppm ascorbic acid, 2 hr): 100.5 µg/mL
- TAAE (trypsin; pH 7.5, 240 ppm ascorbic acid, 3 hr): 86.8 µg/mL
- hydrolysis efficiency of trypsin versus control group (in words) (trypsin; pH 7.5, groups containing ascorbic acid): better hydrolysis efficiencies than the control group
